{"source": "patent US20230338378A1", "about": "“Methods of Administering Myosin Inhibitors” (MYOKARDIA, INC., priority 2022, published 2023)", "key": {"[1]": {"biological_target": "CYP2D6 (Homo sapiens, UniProt P10635)", "sequence (P10635 whole entry)": "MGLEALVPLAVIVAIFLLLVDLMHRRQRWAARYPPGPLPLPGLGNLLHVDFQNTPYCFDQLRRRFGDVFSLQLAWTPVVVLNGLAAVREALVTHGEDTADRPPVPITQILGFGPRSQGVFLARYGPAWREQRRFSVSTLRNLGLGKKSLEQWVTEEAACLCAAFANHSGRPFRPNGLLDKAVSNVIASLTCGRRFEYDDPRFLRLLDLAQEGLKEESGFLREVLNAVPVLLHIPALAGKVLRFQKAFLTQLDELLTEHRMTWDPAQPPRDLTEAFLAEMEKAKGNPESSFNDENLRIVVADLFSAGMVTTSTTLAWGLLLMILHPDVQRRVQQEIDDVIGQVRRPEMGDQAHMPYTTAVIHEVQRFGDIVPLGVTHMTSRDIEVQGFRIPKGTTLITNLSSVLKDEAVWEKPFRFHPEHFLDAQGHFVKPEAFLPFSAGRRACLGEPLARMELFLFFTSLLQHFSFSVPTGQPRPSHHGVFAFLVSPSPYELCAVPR", "assay": "In vitro CYP inhibition", "format": "in vitro ADME", "conditions": "In Vitro Studies; clinically relevant concentrations"}, "[2]": {"biological_target": "MATE1 (Homo sapiens, UniProt Q96FL8)", "sequence (Q96FL8 whole entry)": "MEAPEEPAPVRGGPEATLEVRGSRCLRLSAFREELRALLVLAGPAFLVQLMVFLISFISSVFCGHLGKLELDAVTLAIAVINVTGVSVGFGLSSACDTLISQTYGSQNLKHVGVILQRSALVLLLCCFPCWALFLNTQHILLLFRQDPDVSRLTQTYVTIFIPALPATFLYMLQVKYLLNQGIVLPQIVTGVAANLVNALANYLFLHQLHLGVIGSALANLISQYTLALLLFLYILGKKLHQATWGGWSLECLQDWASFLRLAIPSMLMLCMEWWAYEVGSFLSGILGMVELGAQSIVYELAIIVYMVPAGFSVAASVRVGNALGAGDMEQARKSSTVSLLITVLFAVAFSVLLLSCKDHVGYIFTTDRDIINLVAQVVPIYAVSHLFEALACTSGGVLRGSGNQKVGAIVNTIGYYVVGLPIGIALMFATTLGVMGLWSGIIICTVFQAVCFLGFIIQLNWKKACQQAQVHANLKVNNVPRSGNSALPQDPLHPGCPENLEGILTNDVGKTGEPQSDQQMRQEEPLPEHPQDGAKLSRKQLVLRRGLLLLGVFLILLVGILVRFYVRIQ", "assay": "In vitro transporter inhibition", "format": "in vitro ADME", "conditions": "In Vitro Studies"}, "[3]": {"system": "male or female rats", "assay": "Reproductive toxicity studies (mating and fertility)", "format": "in vivo, rat"}, "[4]": {"biological_target": "CYP2C8 (Homo sapiens, UniProt P10632)", "sequence (P10632 whole entry)": "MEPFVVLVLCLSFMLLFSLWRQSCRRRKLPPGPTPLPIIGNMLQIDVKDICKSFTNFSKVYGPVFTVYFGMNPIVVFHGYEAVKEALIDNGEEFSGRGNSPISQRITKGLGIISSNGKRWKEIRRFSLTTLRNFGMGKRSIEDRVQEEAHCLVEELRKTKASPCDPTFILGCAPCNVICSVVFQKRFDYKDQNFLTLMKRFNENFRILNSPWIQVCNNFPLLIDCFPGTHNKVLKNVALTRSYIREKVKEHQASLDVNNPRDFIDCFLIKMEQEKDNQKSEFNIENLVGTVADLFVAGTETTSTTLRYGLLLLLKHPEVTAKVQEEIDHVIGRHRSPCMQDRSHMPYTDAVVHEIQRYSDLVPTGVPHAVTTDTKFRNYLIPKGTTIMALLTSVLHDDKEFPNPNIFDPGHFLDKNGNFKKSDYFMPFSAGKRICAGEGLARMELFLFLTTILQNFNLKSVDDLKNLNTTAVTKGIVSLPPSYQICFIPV", "assay": "In vitro CYP inhibition", "format": "in vitro ADME", "conditions": "In Vitro Studies"}, "[5]": {"system": "pregnant rats", "assay": "Pre/postnatal development study in rats", "format": "in vivo, rat", "protocol": "In a pre/postnatal development study, mavacamten was administered orally to pregnant rats (0.3, to 1.5 mg/kg/day) from gestation Day 6 to lactation/post-partum Day 20."}, "[6]": {"biological_target": "MATE2-K (Homo sapiens, UniProt Q86VL8)", "assay": "In vitro transporter inhibition", "format": "in vitro ADME", "conditions": "In Vitro Studies"}, "[7]": {"biological_target": "P-gp (Homo sapiens, UniProt P08183)", "sequence (P08183 whole entry)": "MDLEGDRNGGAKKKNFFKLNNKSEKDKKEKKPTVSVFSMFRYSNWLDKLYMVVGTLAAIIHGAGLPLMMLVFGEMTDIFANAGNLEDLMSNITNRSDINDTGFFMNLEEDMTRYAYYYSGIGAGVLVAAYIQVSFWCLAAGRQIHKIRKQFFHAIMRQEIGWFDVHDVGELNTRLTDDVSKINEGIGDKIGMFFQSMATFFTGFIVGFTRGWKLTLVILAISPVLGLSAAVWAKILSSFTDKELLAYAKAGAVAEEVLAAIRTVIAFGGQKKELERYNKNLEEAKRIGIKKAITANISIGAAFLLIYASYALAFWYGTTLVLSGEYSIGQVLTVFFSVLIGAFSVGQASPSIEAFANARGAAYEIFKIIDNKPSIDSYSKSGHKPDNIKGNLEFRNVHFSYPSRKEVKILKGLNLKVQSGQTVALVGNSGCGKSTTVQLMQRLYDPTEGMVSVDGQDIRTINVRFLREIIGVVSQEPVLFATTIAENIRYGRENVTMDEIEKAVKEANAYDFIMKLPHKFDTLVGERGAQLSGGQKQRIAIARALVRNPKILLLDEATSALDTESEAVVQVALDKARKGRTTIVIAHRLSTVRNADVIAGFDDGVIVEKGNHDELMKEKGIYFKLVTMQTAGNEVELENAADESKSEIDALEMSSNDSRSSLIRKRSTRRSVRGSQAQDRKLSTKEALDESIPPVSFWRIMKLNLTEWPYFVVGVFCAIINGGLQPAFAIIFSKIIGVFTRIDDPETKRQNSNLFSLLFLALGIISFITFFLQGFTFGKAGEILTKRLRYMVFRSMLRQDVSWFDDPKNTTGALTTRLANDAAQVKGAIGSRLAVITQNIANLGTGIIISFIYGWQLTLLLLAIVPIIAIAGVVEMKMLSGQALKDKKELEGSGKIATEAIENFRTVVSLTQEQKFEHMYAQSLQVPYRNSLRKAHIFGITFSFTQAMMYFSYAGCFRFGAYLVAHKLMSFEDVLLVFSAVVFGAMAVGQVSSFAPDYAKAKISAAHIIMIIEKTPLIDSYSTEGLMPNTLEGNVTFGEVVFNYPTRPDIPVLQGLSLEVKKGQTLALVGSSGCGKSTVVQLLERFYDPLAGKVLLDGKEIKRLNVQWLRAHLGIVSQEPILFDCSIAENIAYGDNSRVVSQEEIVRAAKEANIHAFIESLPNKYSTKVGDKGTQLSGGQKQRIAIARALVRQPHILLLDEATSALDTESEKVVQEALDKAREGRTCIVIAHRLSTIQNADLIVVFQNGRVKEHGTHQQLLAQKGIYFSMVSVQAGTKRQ", "assay": "In vitro transporter inhibition", "format": "in vitro ADME", "conditions": "In Vitro Studies"}, "[8]": {"assay": "Pharmacokinetics in hepatic impairment", "format": "in vivo, human", "conditions": "mild (Child-Pugh A) or moderate (Child-Pugh B) hepatic impairment vs normal hepatic function"}, "[9]": {"system": "rat", "assay": "Rat in vivo micronucleus assay"}, "[10]": {"system": "organic anion transporters (OATs)", "assay": "In vitro transporter inhibition", "format": "in vitro ADME", "conditions": "In Vitro Studies"}, "[11]": {"assay": "Human experience of overdose", "format": "in vivo", "protocol": "Human experience of overdose with MAVACAMTEN is limited. MAVACAMTEN has been given as a single dose of up to 144 mg in patients with HCM. […] In healthy subjects, doses of up to 25 mg have been administered for up to 25 days, with 3 of 8 participants treated at the 25 mg dose level experiencing 20% or greater reductions in LVEF. An infant death was reported after accidental ingestion of three 15 mg capsules."}, "[12]": {"biological_target": "CYP2B6 (Homo sapiens, UniProt P20813)", "assay": "In vitro CYP inhibition", "format": "in vitro ADME", "conditions": "In Vitro Studies"}, "[13]": {"assay": "Plasma protein binding", "format": "in vitro ADME"}, "[14]": {"system": "HCM patients", "assay": "Meta-analysis of QTc across clinical studies in HCM patients", "format": "in vivo, human", "conditions": "therapeutic exposure range", "description": "The effect of coadministration of MAVACAMTEN with QT-prolonging drugs or in patients with potassium channel variants resulting in a long QT interval have not been characterized."}, "[15]": {"system": "rasH2 transgenic mouse", "assay": "6-month rasH2 transgenic mouse carcinogenicity study", "format": "in vivo"}, "[16]": {"system": "pregnant rabbits", "assay": "Embryo-fetal development study in pregnant rabbits", "format": "in vivo, rabbit", "protocol": "Visceral findings consisted of malformations of the great vessels (dilatation of pulmonary trunk and/or aortic arch). Skeletal malformations consisted of higher incidences of fused sternebrae at ≥1.2 mg/kg/day. Plasma exposure (AUC) at the no-effect dose for embryo-fetal development in rabbits is 0.4 times the exposure in humans at the MRHD."}, "[17]": {"system": "adults with symptomatic NYHA class II and III obstructive HCM", "conditions": "phase 3 EXPLORER-HCM, oHCM patient population (Olivotto et al., 2020); cited from earlier work"}, "[18]": {"biological_target": "BSEP (Homo sapiens, UniProt O95342)", "sequence (O95342 whole entry)": "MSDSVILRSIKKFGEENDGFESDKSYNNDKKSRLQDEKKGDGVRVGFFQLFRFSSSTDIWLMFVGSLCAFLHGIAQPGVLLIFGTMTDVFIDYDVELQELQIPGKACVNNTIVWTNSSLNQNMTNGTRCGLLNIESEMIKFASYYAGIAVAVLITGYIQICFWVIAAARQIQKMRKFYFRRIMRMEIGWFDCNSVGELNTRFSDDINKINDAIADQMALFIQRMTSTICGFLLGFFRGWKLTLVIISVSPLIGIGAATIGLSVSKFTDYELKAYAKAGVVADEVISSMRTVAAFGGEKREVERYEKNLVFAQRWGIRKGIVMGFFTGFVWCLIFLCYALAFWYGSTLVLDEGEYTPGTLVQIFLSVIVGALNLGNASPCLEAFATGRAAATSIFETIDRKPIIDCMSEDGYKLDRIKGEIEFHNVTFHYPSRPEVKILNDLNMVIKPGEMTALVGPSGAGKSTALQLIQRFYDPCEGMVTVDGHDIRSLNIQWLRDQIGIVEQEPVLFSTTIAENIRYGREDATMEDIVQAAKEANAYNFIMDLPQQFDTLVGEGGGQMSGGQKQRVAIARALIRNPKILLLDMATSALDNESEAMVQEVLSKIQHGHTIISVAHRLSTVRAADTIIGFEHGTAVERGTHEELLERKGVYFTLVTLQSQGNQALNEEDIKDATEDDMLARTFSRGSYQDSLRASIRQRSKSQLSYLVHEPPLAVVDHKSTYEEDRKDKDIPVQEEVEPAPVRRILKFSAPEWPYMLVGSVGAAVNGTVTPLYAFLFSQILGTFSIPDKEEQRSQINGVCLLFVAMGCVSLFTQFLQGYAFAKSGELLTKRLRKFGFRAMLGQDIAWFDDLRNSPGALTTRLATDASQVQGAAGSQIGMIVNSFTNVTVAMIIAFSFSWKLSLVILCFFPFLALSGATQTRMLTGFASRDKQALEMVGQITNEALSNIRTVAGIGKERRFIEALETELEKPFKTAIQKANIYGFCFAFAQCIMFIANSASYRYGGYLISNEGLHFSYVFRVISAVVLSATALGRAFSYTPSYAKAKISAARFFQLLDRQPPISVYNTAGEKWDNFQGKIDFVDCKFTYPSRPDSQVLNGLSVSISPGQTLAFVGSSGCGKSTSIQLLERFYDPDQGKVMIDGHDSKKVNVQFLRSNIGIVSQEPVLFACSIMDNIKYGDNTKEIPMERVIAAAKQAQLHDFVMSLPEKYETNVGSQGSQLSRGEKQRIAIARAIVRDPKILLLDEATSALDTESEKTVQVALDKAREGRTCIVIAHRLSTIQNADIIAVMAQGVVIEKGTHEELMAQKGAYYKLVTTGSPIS", "assay": "In vitro transporter inhibition", "format": "in vitro ADME", "conditions": "In Vitro Studies"}, "[19]": {"system": "CYP2B6", "assay": "In vitro CYP induction", "format": "in vitro ADME", "conditions": "In Vitro Studies"}, "[20]": {"biological_target": "CYP2C19 (Homo sapiens, UniProt P33261)", "sequence (P33261 whole entry)": "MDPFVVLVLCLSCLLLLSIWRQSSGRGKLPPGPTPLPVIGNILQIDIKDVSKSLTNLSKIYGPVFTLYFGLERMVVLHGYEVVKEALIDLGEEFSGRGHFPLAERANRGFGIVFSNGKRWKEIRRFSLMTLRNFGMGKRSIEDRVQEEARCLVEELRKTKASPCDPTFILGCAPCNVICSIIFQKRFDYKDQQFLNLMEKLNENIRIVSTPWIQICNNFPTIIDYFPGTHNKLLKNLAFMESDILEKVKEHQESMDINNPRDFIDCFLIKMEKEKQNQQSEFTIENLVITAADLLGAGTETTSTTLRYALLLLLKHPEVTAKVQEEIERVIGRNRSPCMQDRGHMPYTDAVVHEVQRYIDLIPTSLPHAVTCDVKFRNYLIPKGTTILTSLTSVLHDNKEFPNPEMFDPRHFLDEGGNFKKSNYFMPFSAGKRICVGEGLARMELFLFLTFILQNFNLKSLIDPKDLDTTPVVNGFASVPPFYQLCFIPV", "assay": "Metabolism through CYP enzymes"}}, "data": [{"smiles": "CC(C)n1c(=O)cc(N[C@@H](C)c2ccccc2)[nH]c1=O", "note": "[mavacamten, (S)-3-Isopropyl-6-((1-phenylethyl)amino)pyrimidine-2,4(1H,3H)-dione]", "values": [{"measurement": "inhibition of CYP2D6", "setting": "[1]", "result": "not an inhibitor"}, {"measurement": "inhibition of MATE1", "setting": "[2]", "result": "does not inhibit"}, {"measurement": "effects on the viability and fertility of offspring", "setting": "[3]; dams dosed up to 1.5 mg/kg/day", "result": "no evidence of effects"}, {"measurement": "effects on mating and fertility", "setting": "[3]; male or female rats, doses up to 1.2 mg/kg/day", "result": "no evidence of effects"}, {"measurement": "Plasma exposure (AUC) at the highest dose tested", "setting": "[3]; rats", "result": "the same as in humans at the MRHD"}, {"measurement": "inhibition of CYP2C8", "setting": "[4]", "result": "does not inhibit"}, {"measurement": "no-observed-adverse-effect level (NOAEL)", "setting": "[5]; pre/postnatal development study, rats, highest dosage level tested", "result": 1.5, "unit": "mg/kg/day"}, {"measurement": "effects in dams or offspring", "setting": "[5]; pregnant rats, oral 0.3 to 1.5 mg/kg/day, gestation Day 6 to lactation/post-partum Day 20", "result": "No adverse effects were observed"}, {"measurement": "inhibition of MATE2-K", "setting": "[6]", "result": "does not inhibit"}, {"measurement": "inhibition of P-gp", "setting": "[7]", "result": "does not inhibit"}, {"measurement": "exposure (AUC) increase", "setting": "[8]", "result": "up to 220%"}, {"measurement": "genotoxicity", "setting": "[9]", "result": "not genotoxic"}, {"measurement": "inhibition of OATs", "setting": "[10]", "result": "does not inhibit"}, {"measurement": "events after overdose", "setting": "[11]; one subject, single dose of 144 mg, subject recovered", "result": "serious adverse events including vasovagal reaction, hypotension, and asystole"}, {"measurement": "outcome after accidental ingestion", "setting": "[11]; three 15 mg capsules", "result": "infant death"}, {"measurement": "inhibition of CYP2B6", "setting": "[12]", "result": "does not inhibit"}, {"measurement": "fraction unbound", "setting": "[13]", "result": "0.02 to 0.03"}, {"measurement": "QTc interval", "setting": "[14]", "result": "does not suggest clinically relevant increases in the QTc interval"}, {"measurement": "carcinogenicity", "setting": "[15]; 6-month rasH2 transgenic mouse, up to 2.0 mg/kg/day in males and 3.0 mg/kg/day in females", "result": "no evidence of carcinogenicity"}, {"measurement": "exposure (AUC) compared to AUC exposures in humans at the MRHD", "setting": "[15]; females, 3.0 mg/kg/day", "result": 3, "unit": "fold"}, {"measurement": "exposure (AUC) compared to AUC exposures in humans at the MRHD", "setting": "[15]; males, 2.0 mg/kg/day", "result": 1.8, "unit": "fold"}, {"measurement": "embryo-fetal findings", "setting": "[16]; pregnant rabbits, oral, period of organogenesis, doses of 1.2 mg/kg/day and higher", "result": "fetal malformations (visceral and skeletal) were increased"}, {"measurement": "Plasma exposure (AUC) at the no-effect dose for embryo-fetal development vs exposure in humans at the MRHD", "setting": "[16]; rabbits", "result": 0.4, "unit": "times"}, {"measurement": "LVOT gradients, symptoms, exercise performance and health status", "setting": "[17]", "result": "effective in reducing LVOT gradients and improving symptoms, exercise performance and health status"}, {"measurement": "inhibition of BSEP", "setting": "[18]", "result": "does not inhibit"}, {"measurement": "induction of CYP2B6", "setting": "[19]", "result": "inducer"}, {"measurement": "metabolized through CYP2C19", "setting": "[20]", "result": 74, "unit": "%"}]}]}
